Key:
Design in all cases: key: 0: little difference in the degree of germination or growth between the treated plants and the untreated plants at the time of examination; 10: the treated plants died completely or their germination or growth was completely inhibited
[1] = tested on: ivyleaf morningglory; assay: Test Example 4: soil surface treatment on upland field (Table 5); assay type: in vivo, Ipomoea hederacea; conditions: 500 g/ha active ingredient, examined 12 days after application, index 0-10
From the text: (§1) In the examples, the compounds are identified by the Compound Numbers as in Tables 1 to 3. […] A cylindrical plastic pot having a diameter of 10 cm and a depth of 10 cm was filled with soil and seeded ivyleaf morningglory, velvetleaf and barnyardgrass. Then each of compounds listed below was formulated into an emulsifiable concentrate according to Formulation Example 2 and then diluted to the prescribed amount with water and dilution was uniformly sprayed over the surface of the soil with sprayer at the rate of 1000 liters per hectare. After the application, the test plants were grown in a greenhouse for 12 days, and the herbicidal activity was examined.

[2] = tested on: barnyardgrass; assay: as above; assay type: in vivo, Echinochloa crus-galli; conditions: 500 g/ha active ingredient, examined 12 days after application, index 0-10
From the text: as §1

[3] = tested on: velvetleaf; assay: Test Example 3: foliar treatment on upland field (Table 4); assay type: in vivo, Abutilon theophrasti; conditions: 125 g/ha active ingredient, examined 16 days after application, index 0-10
Description: (§2) In the examples, the compounds are identified by the Compound Numbers as in Tables 1 to 3. […] A cylindrical plastic pot having a diameter of 10 cm and a depth of 10 cm was filled with soil and seeded with ivyleaf momingglory, velvetleaf and barnyardgrass. These test plants were grown in a greenhouse for 10 days. Then each of compounds listed below was formulated into an emulsifiable concentrate according to Formulation Example 2 and then diluted to the prescribed amount with water containing a spreading agent and the dilution was uniformly sprayed over the foliage of the test plants with sprayer at a rate of 1000 liters per hectare. After the application, the test plants were grown in the greenhouse for 16 days, and the herbicidal activity were determined.

[4] = tested on: velvetleaf; assay: Test Example 4: soil surface treatment on upland field (Table 5); assay type: in vivo, Abutilon theophrasti; conditions: 500 g/ha active ingredient, examined 12 days after application, index 0-10
From the text: as §1

[5] = tested on: large crabgrass; assay: Test Example 5: foliar treatment on upland field (Table 6); assay type: in vivo, Digitaria sanguinalis; conditions: 125 g/ha, 19 days after application, index 0 to 10
Description: In the examples, the compounds are identified by the Compound Numbers as in Tables 1 to 3. […] A pot for plug seedlings seeded with large crabgrass. The test plant was grown in a greenhouse for 14 days, then transplanted into a plastic pot having an area of 17×12 cm^2 and a depth of 7 cm, and further the test plants were grown in the greenhouse for 8 days. Then each of compounds listed below was formulated into an emulsifiable concentrate according to Formulation Example 2 and then diluted to the prescribed amount with water containing a spreading agent and the dilution was uniformly sprayed over the foliage of the test plants with sprayer at a rate of 1000 liters per hectare. After the application, the test plants were grown in the greenhouse for 19 days, and the herbicidal activity were determined.

[6] = tested on: ivyleaf morningglory; assay: Test Example 3: foliar treatment on upland field (Table 4); assay type: in vivo, Ipomoea hederacea; conditions: 125 g/ha active ingredient, examined 16 days after application, index 0-10
Description: as §2

[7] = tested on: barnyardgrass; assay: as above; assay type: in vivo, Echinochloa crus-galli; conditions: 125 g/ha active ingredient, examined 16 days after application, index 0-10
Description: as §2

SMILES	Herbicidal effect Ivyleaf morningglory [1]	Herbicidal effect Barnyardgrass [2]	Herbicidal effect Velvetleaf [3]	Herbicidal effect Velvetleaf [4]	Herbicidal effect Large crabgrass [5]	Herbicidal effect Ivyleaf morningglory [6]	Herbicidal effect Barnyardgrass [7]
CCOC(=O)C(C)Oc1ccc(COc2cc(-n3c(=O)cc(C(F)(F)F)n(C)c3=O)c(F)cc2Cl)cc1 (centres unmarked) [Compound 1-2, Ethyl 2-[4-({2-chloro-4-fluoro-5-[3-methyl-2,6-dioxo-4-(trifluoromethyl)-1,2,3,6-tetrahydropyrimidine-1-yl]phenoxy}methyl)phenoxy]propionate]	10	10	10	10	10	10	10
COC(=O)C(C)Oc1ccc(C(C)Oc2cc(-n3c(=O)cc(C(F)(F)F)n(C)c3=O)c(F)cc2Cl)cc1 (centres unmarked) [Compound 1-21, Methyl 2-[4-(1-{2-chloro-4-fluoro-5-[3-methyl-2,6-dioxo-4-(trifluoromethyl)-1,2,3,6-tetrahydropyrimidine-1-yl]phenoxy}ethyl)phenoxy]propionate]	10	10	10	10	10	10	10
CCOC(=O)C(C)Oc1ccc(COc2cc(-n3c(=O)cc(C(F)(F)F)n(C)c3=O)c(F)cc2Cl)cc1Cl (centres unmarked) [Compound 1-42, Ethyl 2-[2-chloro-4-({2-chloro-4-fluoro-5-[3-methyl-2,6-dioxo-4-(trifluoromethyl)-1,2,3,6-tetrahydropyrimidine-1-yl]phenoxy}methyl)phenoxy]propionate]	10	8	10	10	10	10	10
COC(=O)C(C)Oc1ccc(COc2cc(-n3c(=O)cc(C(F)(F)F)n(C)c3=O)c(F)cc2Cl)cc1OC (centres unmarked) [Compound 1-61, Methyl 2-[4-({2-chloro-4-fluoro-5-[3-methyl-2,6-dioxo-4-(trifluoromethyl)-1,2,3,6-tetrahydropyrimidine-1-yl]phenoxy}methyl)-2-methoxyphenoxy]propionate]	10	10	10	10	10	10	10
COC(=O)C(C)Oc1ccc(COc2cc(-n3c(=O)cc(C(F)(F)F)n(C)c3=O)c(F)cc2Cl)cc1C (centres unmarked) [Compound 1-101, Methyl 2-[4-({2-chloro-4-fluoro-5-[3-methyl-2,6-dioxo-4-(trifluoromethyl)-1,2,3,6-tetrahydropyrimidine-1-yl]phenoxy}methyl)-2-methylphenoxy]propionate]	10	10	10	10	10	10	10
COC(=O)C(C)Oc1c(Br)cc(COc2cc(-n3c(=O)cc(C(F)(F)F)n(C)c3=O)c(F)cc2Cl)cc1OC (centres unmarked) [Compound 1-161, Methyl 2-[2-bromo-4-({2-chloro-4-fluoro-5-[3-methyl-2,6-dioxo-4-(trifluoromethyl)-1,2,3,6-tetrahydropyrimidine-1-yl]phenoxy}methyl)-6-methoxyphenoxy]propionate]	7	4	10	10	10	10	8
CCC(Oc1cc(-n2c(=O)cc(C(F)(F)F)n(C)c2=O)c(F)cc1Cl)c1ccc(OC(C)C(=O)OC)cc1 (centres unmarked) [Compound 1-213, Methyl 2-[4-(1-{2-chloro-4-fluoro-5-[3-methyl-2,6-dioxo-4-(trifluoromethyl)-1,2,3,6-tetrahydropyrimidine-1-yl]phenoxy}propyl)phenoxy]propionate]	10	10	10	10	10	10	10
COC(=O)C(C)Oc1ccc(C(C#N)Oc2cc(-n3c(=O)cc(C(F)(F)F)n(C)c3=O)c(F)cc2Cl)cc1 (centres unmarked) [Compound 1-226, Methyl 2-{4-[{2-chloro-4-fluoro-5-[3-methyl-2,6-dioxo-4-(trifluoromethyl)-1,2,3,6-tetrahydropyrimidine-1-yl]phenoxy}(cyano)methyl]phenoxy}propionate]	10	9	10	10	10	10	10
COC(=O)C(C)Oc1c(OC)cc(COc2cc(-n3c(=O)cc(C(F)(F)F)n(C)c3=O)c(F)cc2Cl)cc1OC (centres unmarked) [Compound 1-238, Methyl 2-[4-({2-chloro-4-fluoro-5-[3-methyl-2,6-dioxo-4-(trifluoromethyl)-1,2,3,6-tetrahydropyrimidine-1-yl]phenoxy}methyl)-2,6-dimethoxyphenoxy]propionate]	10	8	10	10	10	10	9
COC(=O)C(C)Oc1ccc(COc2cc(-n3c(=O)cc(C(F)(F)F)n(C)c3=O)c(F)cc2Cl)c(F)c1 (centres unmarked) [Compound 1-242, Methyl 2-[4-({2-chloro-4-fluoro-5-[3-methyl-2,6-dioxo-4-(trifluoromethyl)-1,2,3,6-tetrahydropyrimidine-1-yl]phenoxy}methyl)-3-fluorophenoxy]propionate]	10	10	10	10	10	10	10
COC(=O)C(C)Oc1ccc(C(Oc2cc(-n3c(=O)cc(C(F)(F)F)n(C)c3=O)c(F)cc2Cl)c2ccccc2)cc1 (centres unmarked) [Compound 1-246, Methyl 2-[4-({2-chloro-4-fluoro-5-[3-methyl-2,6-dioxo-4-(trifluoromethyl)-1,2,3,6-tetrahydropyrimidine-1-yl]phenoxy}(phenyl)methyl)phenoxy]propionate]	8	10	10	10	10	10	8
